Assay results taken from ChEMBL document CHEMBL1201861, “Genomics of Drug Sensitity in Cancer screening data, Wellcome Trust Sanger Institute”.

How the values were obtained:
Assay in all cases: cells
Conditions in all cases: Homo sapiens
[1] = tested on: NCI-H1581; type: functional, cell-based;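 also: cell growth inhibition read out by a viability assay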
Description: SANGER: Inhibition of human NCI-H1581 cell growth in a cell viability assay.

[2] = tested on: LB771-HNC; type: functional, cell-based;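 also: growth inhibition of LB771-HNC human cells, read out with a cell viability assay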
Description: SANGER: Inhibition of human LB771-HNC cell growth in a cell viability assay.

[3] = tested on: SK-PN-DW; type: functional, cell-based;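 also: growth inhibition measured with a viability assay on these cells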
Description: SANGER: Inhibition of human SK-PN-DW cell growth in a cell viability assay.

[4] = tested on: LB831-BLC; type: functional, cell-based;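 also: growth inhibition of LB831-BLC cells, read out with a cell viability assay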
Description: SANGER: Inhibition of human LB831-BLC cell growth in a cell viability assay.

[5] = tested on: A4-Fuk; type: functional, cell-based;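 also: growth inhibition of A4-Fuk cells, read out by a cell viability assay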
Description: SANGER: Inhibition of human A4-Fuk cell growth in a cell viability assay.

[6] = tested on: CTB-1; type: functional, cell-based
Description: SANGER: Inhibition of human CTB-1 cell growth in a cell viability assay.

[7] = tested on: GI-1; type: functional, cell-based;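 also: growth inhibition of human GI-1 cells, measured with a cell viability readout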
Description: SANGER: Inhibition of human GI-1 cell growth in a cell viability assay.

[8] = tested on: LOX IMVI; type: functional, cell-based
Description: SANGER: Inhibition of human LOXIMVI cell growth in a cell viability assay.

[9] = tested on: ES1; type: functional, cell-based;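 also: growth inhibition of ES1 cells, read out with a cell viability assay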
Description: SANGER: Inhibition of human ES1 cell growth in a cell viability assay.

[10] = tested on: KP-N-YS; type: functional, cell-based;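 also: cell viability assay measuring inhibition of cell line growth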
Description: SANGER: Inhibition of human KP-N-YS cell growth in a cell viability assay.

[11] = tested on: U-266; type: functional, cell-based
Description: SANGER: Inhibition of human U-266 cell growth in a cell viability assay.

[12] = tested on: ES3; type: functional, cell-based;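 also: growth inhibition of ES3 cells, read out with a cell viability assay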
Description: SANGER: Inhibition of human ES3 cell growth in a cell viability assay.

[13] = tested on: JAR; type: functional, cell-based;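 also: growth inhibition of human JAR cells determined with a cell viability assay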
Description: SANGER: Inhibition of human JAR cell growth in a cell viability assay.

[14] = tested on: JVM-3; type: functional, cell-based;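 also: growth inhibition of human JVM-3 cells, read out with a cell viability assay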
Description: SANGER: Inhibition of human JVM-3 cell growth in a cell viability assay.

[15] = tested on: SK-MEL-1; type: functional, cell-based;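 also: growth inhibition of human SK-MEL-1 cells, read out by a cell viability assay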
Description: SANGER: Inhibition of human SK-MEL-1 cell growth in a cell viability assay.

[16] = tested on: MOLT-16; type: functional, cell-based;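 also: growth inhibition of human MOLT-16 cells, read out with a cell viability assay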
Description: SANGER: Inhibition of human MOLT-16 cell growth in a cell viability assay.

[17] = tested on: CGTH-W-1; type: functional, cell-based;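 also: growth inhibition of human CGTH-W-1 cells measured by cell viability assay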
Description: SANGER: Inhibition of human CGTH-W-1 cell growth in a cell viability assay.

[18] = tested on: EW-16; type: functional, cell-based;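 also: growth inhibition of human EW-16 cells, read out as cell viability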
Description: SANGER: Inhibition of human EW-16 cell growth in a cell viability assay.

[19] = tested on: MZ1-PC; type: functional, cell-based;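 also: cell viability assay measuring growth inhibition of human MZ1-PC cells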
Description: SANGER: Inhibition of human MZ1-PC cell growth in a cell viability assay.

[20] = tested on: NB69; type: functional, cell-based;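 also: growth inhibition of NB69 cells, determined by a cell viability assay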
Description: SANGER: Inhibition of human NB69 cell growth in a cell viability assay.

[21] = tested on: TE-9; type: functional, cell-based;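 also: cell growth inhibition, measured with a cell viability readout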
Description: SANGER: Inhibition of human TE-9 cell growth in a cell viability assay.

[22] = tested on: TE-5; type: functional, cell-based;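 also: inhibition of cell growth, read out by a cell viability assay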
Description: SANGER: Inhibition of human TE-5 cell growth in a cell viability assay.

[23] = tested on: MOLT-4; type: functional, cell-based;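 also: growth inhibition of MOLT-4 cells, determined with a cell viability readout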
Description: SANGER: Inhibition of human MOLT-4 cell growth in a cell viability assay.

[24] = tested on: ACN; type: functional, cell-based;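 also: growth inhibition of the human ACN cell line, read out via cell viability testing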
Description: SANGER: Inhibition of human ACN cell growth in a cell viability assay.

[25] = tested on: COR-L88; type: functional, cell-based;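 also: growth inhibition of COR-L88 cells, read out with a cell viability assay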
Description: SANGER: Inhibition of human COR-L88 cell growth in a cell viability assay.

[26] = tested on: TE-11; type: functional, cell-based;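 also: growth inhibition of human TE-11 cells, read out by a cell viability assay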
Description: SANGER: Inhibition of human TE-11 cell growth in a cell viability assay.

[27] = tested on: SCC-15; type: functional, cell-based;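 also: growth inhibition of SCC-15 cells, read out with a cell viability assay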
Description: SANGER: Inhibition of human SCC-15 cell growth in a cell viability assay.

[28] = tested on: DB; type: functional, cell-based
Description: SANGER: Inhibition of human DB cell growth in a cell viability assay.

[29] = tested on: LS-411N; type: functional, cell-based
[30] = tested on: SBC-1; type: functional, cell-based;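 also: cell viability assay measuring growth inhibition of the SBC-1 cell line, IC50 being the concentration that halves growth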
Description: SANGER: Inhibition of human SBC-1 cell growth in a cell viability assay.

[31] = tested on: C2BBe1; type: functional, cell-based;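 also: growth inhibition of C2BBe1 cells, read out through a viability assay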
Description: SANGER: Inhibition of human C2BBe1 cell growth in a cell viability assay.

[32] = tested on: ES6; type: functional, cell-based;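 also: growth inhibition of human ES6 cells, read out with a cell viability assay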
Description: SANGER: Inhibition of human ES6 cell growth in a cell viability assay.

[33] = tested on: HDLM-2; type: functional, cell-based;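 also: cell viability assay measuring suppression of HDLM-2 proliferation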
Description: SANGER: Inhibition of human HDLM-2 cell growth in a cell viability assay.

[34] = tested on: SW 954; type: functional, cell-based;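 also: growth inhibition of SW954 human cancer cells, read out as cell viability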
Description: SANGER: Inhibition of human SW954 cell growth in a cell viability assay.

[35] = tested on: D283 Med; type: functional, cell-based
Description: SANGER: Inhibition of human D-283MED cell growth in a cell viability assay.

[36] = tested on: A388; type: functional, cell-based;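 also: growth inhibition of human A388 cells, read out with a cell viability assay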
Description: SANGER: Inhibition of human A388 cell growth in a cell viability assay.

[37] = tested on: 697; type: functional, cell-based
Description: SANGER: Inhibition of human 697 cell growth in a cell viability assay.

[38] = tested on: NCI-H526; type: functional, cell-based;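 also: growth inhibition of the human NCI-H526 cell line, measured by a cell viability assay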
Description: SANGER: Inhibition of human NCI-H526 cell growth in a cell viability assay.

[39] = tested on: NMC-G1; type: functional, cell-based;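 also: growth inhibition of the NMC-G1 cell line, measured with a cell viability read-out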
Description: SANGER: Inhibition of human NMC-G1 cell growth in a cell viability assay.

[40] = tested on: RPMI-8226; type: functional, cell-based
Description: SANGER: Inhibition of human RPMI-8226 cell growth in a cell viability assay.

[41] = tested on: EW-13; type: functional, cell-based;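 also: growth inhibition of EW-13 cells, read out with a cell viability assay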
Description: SANGER: Inhibition of human EW-13 cell growth in a cell viability assay.

[42] = tested on: HCE-4; type: functional, cell-based;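 also: cell viability assay measuring inhibition of growth in the human HCE-4 cell line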
Description: SANGER: Inhibition of human HCE-4 cell growth in a cell viability assay.

[43] = tested on: MS-1; type: functional, cell-based;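 also: growth inhibition of MS-1 cells, read out by cell viability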
Description: SANGER: Inhibition of human MS-1 cell growth in a cell viability assay.

[44] = tested on: TE-1; type: functional, cell-based;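 also: growth inhibition of the human TE-1 cell line, read out with a cell viability assay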
Description: SANGER: Inhibition of human TE-1 cell growth in a cell viability assay.

[45] = tested on: GB-1; type: functional, cell-based;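 also: growth of GB-1 cells judged by a viability assay, IC50 marks the concentration inhibiting growth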
Description: SANGER: Inhibition of human GB-1 cell growth in a cell viability assay.

[46] = tested on: BB49-HNC; type: functional, cell-based;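 also: cell viability assay read-out, reported as inhibition of BB49-HNC cell growth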
Description: SANGER: Inhibition of human BB49-HNC cell growth in a cell viability assay.

[47] = tested on: NCI-H209; type: functional, cell-based;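 also: growth inhibition of human NCI-H209 cells, measured by a cell viability assay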
Description: SANGER: Inhibition of human NCI-H209 cell growth in a cell viability assay.

[48] = tested on: ES8; type: functional, cell-based;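 also: growth inhibition of human ES8 cells, read out with a cell viability assay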
Description: SANGER: Inhibition of human ES8 cell growth in a cell viability assay.

[49] = tested on: GR-ST; type: functional, cell-based
Description: SANGER: Inhibition of human GR-ST cell growth in a cell viability assay.

[50] = tested on: LB1047-RCC; type: functional, cell-based;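 also: inhibition of cell growth, determined with a cell viability assay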
Description: SANGER: Inhibition of human LB1047-RCC cell growth in a cell viability assay.

[51] = tested on: RKO; type: functional, cell-based;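 also: growth inhibition of human RKO cells, read out with a cell viability assay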
Description: SANGER: Inhibition of human RKO cell growth in a cell viability assay.

[52] = tested on: NCI-H1355; type: functional, cell-based;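 also: growth inhibition of human NCI-H1355 cells, read out by a cell viability assay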
Description: SANGER: Inhibition of human NCI-H1355 cell growth in a cell viability assay.

[53] = tested on: TE-6; type: functional, cell-based;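 also: growth inhibition of TE-6 cells, read out with a cell viability assay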
Description: SANGER: Inhibition of human TE-6 cell growth in a cell viability assay.

[54] = tested on: COLO-684; type: functional, cell-based
Description: SANGER: Inhibition of human COLO-684 cell growth in a cell viability assay.

[55] = tested on: HEL; type: functional, cell-based;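 also: growth inhibition of HEL cells, read out with a cell viability assay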
Description: SANGER: Inhibition of human HEL cell growth in a cell viability assay.

[56] = tested on: MV4-11; type: functional, cell-based, MV-4-11;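 also: cell viability readout measuring growth inhibition of human MV-4-11 cells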
Description: SANGER: Inhibition of human MV-4-11 cell growth in a cell viability assay.

[57] = tested on: EW-3; type: functional, cell-based;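 also: cell viability assay read-out, IC50 reflects inhibition of growth of the EW-3 cells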
Description: SANGER: Inhibition of human EW-3 cell growth in a cell viability assay.

[58] = tested on: MZ7-mel; type: functional, cell-based;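 also: growth inhibition of human MZ7-mel cells, measured by a cell viability assay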
Description: SANGER: Inhibition of human MZ7-mel cell growth in a cell viability assay.

[59] = tested on: KGN; type: functional, cell-based;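 also: growth inhibition of KGN cells, read out with a cell viability assay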
Description: SANGER: Inhibition of human KGN cell growth in a cell viability assay.

[60] = tested on: KG-1; type: functional, cell-based
Description: SANGER: Inhibition of human KG-1 cell growth in a cell viability assay.

[61] = tested on: KM12; type: functional, cell-based
Description: SANGER: Inhibition of human KM12 cell growth in a cell viability assay.

[62] = tested on: J-RT3-T3-5; type: functional, cell-based
Description: SANGER: Inhibition of human J-RT3-T3-5 cell growth in a cell viability assay.

[63] = tested on: NCI-H1648; type: functional, cell-based
Description: SANGER: Inhibition of human NCI-H1648 cell growth in a cell viability assay.

[64] = tested on: NCI-H1838; type: functional, cell-based
Description: SANGER: Inhibition of human NCI-H1838 cell growth in a cell viability assay.

[65] = tested on: MFH-ino; type: functional, cell-based
Description: SANGER: Inhibition of human MFH-ino cell growth in a cell viability assay.

[66] = tested on: K5; type: functional, cell-based
Description: SANGER: Inhibition of human K5 cell growth in a cell viability assay.

## CC(=O)c1c(C)c2cnc(Nc3ccc(N4CCNCC4)cn3)nc2n(C2CCCC2)c1=O [PALBOCICLIB]
[1]
  IC50: > 4000 nM
[2]
  IC50: > 4000 nM
[3]
  IC50: > 4000 nM
[4]
  IC50: > 4000 nM
[5]
  IC50: > 4000 nM
[6]
  IC50: 405 nM
[7]
  IC50: > 4000 nM
[8]
  IC50: 1910 nM
[9]
  IC50: 256 nM
[10]
  IC50: 3620 nM
[11]
  IC50: > 4000 nM
[12]
  IC50: 729 nM
[13]
  IC50: > 4000 nM
[14]
  IC50: 852 nM
[15]
  IC50: > 4000 nM
[16]
  IC50: 258 nM
[17]
  IC50: 1170 nM
[18]
  IC50: 604 nM
[19]
  IC50: > 4000 nM
[20]
  IC50: 162 nM
[21]
  IC50: > 4000 nM
[22]
  IC50: > 4000 nM
[23]
  IC50: 345 nM
[24]
  IC50: > 4000 nM
[25]
  IC50: > 4000 nM
[26]
  IC50: 1050 nM
[27]
  IC50: > 4000 nM
[28]
  IC50: 1070 nM
[29]
  IC50: > 4000 nM
[30]
  IC50: > 4000 nM
[31]
  IC50: > 4000 nM
[32]
  IC50: > 4000 nM
[33]
  IC50: > 4000 nM
[34]
  IC50: 929 nM
[35]
  IC50: 2720 nM
[36]
  IC50: > 4000 nM
[37]
  IC50: 148 nM
[38]
  IC50: > 4000 nM
[39]
  IC50: > 4000 nM
[40]
  IC50: 527 nM
[41]
  IC50: > 4000 nM
[42]
  IC50: > 4000 nM
[43]
  IC50: > 4000 nM
[44]
  IC50: > 4000 nM
[45]
  IC50: > 4000 nM
[46]
  IC50: > 4000 nM
[47]
  IC50: > 4000 nM
[48]
  IC50: 605 nM
[49]
  IC50: > 4000 nM
[50]
  IC50: 928 nM
[51]
  IC50: 2380 nM
[52]
  IC50: 2560 nM
[53]
  IC50: > 4000 nM
[54]
  IC50: > 4000 nM
[55]
  IC50: 1290 nM
[56]
  IC50: 514 nM
[57]
  IC50: 809 nM
[58]
  IC50: > 4000 nM
[59]
  IC50: 2820 nM
[60]
  IC50: 1270 nM
[61]
  IC50: 1820 nM
[62]
  IC50: 936 nM

## CCn1c(-c2nonc2N)nc2cnc(Oc3cccc(NC(=O)c4ccc(OCCN5CCOCC5)cc4)c3)cc21 [GSK-269962A]
[1]
  IC50: > 2500 nM
[2]
  IC50: > 2500 nM
[3]
  IC50: > 2500 nM
[4]
  IC50: > 2500 nM
[5]
  IC50: > 2500 nM
[6]
  IC50: > 2500 nM
[7]
  IC50: 5.23 nM
[8]
  IC50: > 2500 nM
[9]
  IC50: > 2500 nM
[10]
  IC50: > 2500 nM
[11]
  IC50: > 2500 nM
[12]
  IC50: > 2500 nM
[13]
  IC50: > 2500 nM
[14]
  IC50: > 2500 nM
[15]
  IC50: > 2500 nM
[16]
  IC50: > 2500 nM
[17]
  IC50: > 2500 nM
[18]
  IC50: > 2500 nM
[19]
  IC50: > 2500 nM
[20]
  IC50: > 2500 nM
[21]
  IC50: > 2500 nM
[22]
  IC50: > 2500 nM
[63]
  IC50: > 2500 nM
[23]
  IC50: > 2500 nM
[24]
  IC50: > 2500 nM
[25]
  IC50: > 2500 nM
[28]
  IC50: > 2500 nM
[29]
  IC50: > 2500 nM
[30]
  IC50: > 2500 nM
[31]
  IC50: > 2500 nM
[32]
  IC50: 247 nM
[33]
  IC50: > 2500 nM
[34]
  IC50: > 2500 nM
[35]
  IC50: > 2500 nM
[36]
  IC50: > 2500 nM
[37]
  IC50: 299 nM
[38]
  IC50: > 2500 nM
[39]
  IC50: > 2500 nM
[40]
  IC50: > 2500 nM
[41]
  IC50: > 2500 nM
[43]
  IC50: > 2500 nM
[44]
  IC50: > 2500 nM
[45]
  IC50: > 2500 nM
[46]
  IC50: 7.89 nM
[64]
  IC50: > 2500 nM
[47]
  IC50: > 2500 nM
[48]
  IC50: 819 nM
[49]
  IC50: > 2500 nM
[50]
  IC50: > 2500 nM
[51]
  IC50: > 2500 nM
[65]
  IC50: 644 nM
[52]
  IC50: > 2500 nM
[53]
  IC50: > 2500 nM
[54]
  IC50: > 2500 nM
[66]
  IC50: > 2500 nM
[55]
  IC50: > 2500 nM
[56]
  IC50: 139 nM
[57]
  IC50: > 2500 nM
[58]
  IC50: > 2500 nM
[59]
  IC50: 567 nM
[60]
  IC50: > 2500 nM
[61]
  IC50: > 2500 nM
[62]
  IC50: > 2500 nM
